Reference: publication PMC12396409, “Screening and hit evaluation of a microbial metabolite library against the pathogenic Plasmodium falciparum and Toxoplasma gondii parasites” (International Journal for Parasitology: Drugs and Drug …, 2025)
Read-outs that look alike come from different tables or passages of the source. Where a SMILES comes first, the peptide text is derived from it. [ ]: non-standard residue; d: D form. d(aIle) = CC[C@H](C)[C@@H](N)C(=O)O; NMeL = CN[C@@H](CC(C)C)C(=O)O; Hiv = CC(C)[C@H](O)C(=O)O

Key:
[1] = system: P. falciparum 3D7 parasites; test: P. falciparum growth inhibition assay, 1-cycle (72 h treatment), SYBR DNA staining (library screen at 2 μg/mL and dose-response); format: cell-based, Plasmodium falciparum; conditions: for activity at 2 µg/mL: Plasmodium falciparum
[2] = system: P. falciparum 3D7 parasites; test: P. falciparum growth inhibition assay, 2-cycle (120 h treatment), delayed-death screen and dose-response; format: cell-based, Plasmodium falciparum; conditions: for activity at 2 µg/mL: Plasmodium falciparum
[3] = system: T. gondii RH strain (RH-Tub-eYFP) tachyzoites; test: microbe, parasite or virus in culture; format: cell-based, Toxoplasma gondii
[4] = 3D7, P. falciparum, 72 h, screen at 2 μg/mL, replicate 1, read-out: Pf_72h_%Growth_Rep1
[5] = 3D7, P. falciparum, 72 h, screen at 2 μg/mL, replicate 2, read-out: Pf_72h_%Growth_Rep2
[6] = 3D7, P. falciparum, 120 h, screen at 2 μg/mL, replicate 1, read-out: Pf_120h_%Growth_Rep1
[7] = 3D7, P. falciparum, 120 h, screen at 2 μg/mL, replicate 2, read-out: Pf_120h_%Growth_Rep2
[8] = library screen at 2 μg/mL, 72 h, % growth, replicate 1
[9] = library screen at 2 μg/mL, 72 h, % growth, replicate 2
[10] = library screen at 2 μg/mL, 120 h, % growth, replicate 1
[11] = library screen at 2 μg/mL, 120 h, % growth, replicate 2
[12] = Toxoplasma gondii, 72 h, T. gondii, 72 h, screen at 2 μg/mL, replicate 1; read-out: Tg_72h_%Growth_Rep1
[13] = Toxoplasma gondii, 72 h, T. gondii, 72 h, screen at 2 μg/mL, replicate 2; read-out: Tg_72h_%Growth_Rep2

COC[C@H]1OC(=O)c2coc3c2[C@@]1(C)C1=C(C3=O)[C@@H]2CCC(=O)[C@@]2(C)C[C@H]1OC(C)=O [Wortmannin]
activity at 2 µg/mL [1, 4]: 88.8%
activity at 2 µg/mL [1, 5]: 119%
activity at 2 µg/mL [2, 6]: 109%
activity at 2 µg/mL [2, 7]: 96.5%
percent parasite growth at 2 µg/mL ([3]; Toxoplasma gondii; T. gondii, 72 h, screen at 2 μg/mL, replicate 1; read-out: Tg_72h_%Growth_Rep1): 97.3%
percent parasite growth at 2 µg/mL ([3]; Toxoplasma gondii; T. gondii, 72 h, screen at 2 μg/mL, replicate 2; read-out: Tg_72h_%Growth_Rep2): 76.4%

CC(=O)NCCc1c[nH]c2ccccc12 [Acetyltryptamine, N-]
Pf_72h_%Growth_Rep1 [1, 8]: 83.66%
Pf_72h_%Growth_Rep2 [1, 9]: 90.45%
Pf_120h_%Growth_Rep1 [2, 10]: 84.03%
Pf_120h_%Growth_Rep2 [2, 11]: 87.17%
Tg_72h_%Growth_Rep1 [3, 8]: 109.38%
Tg_72h_%Growth_Rep2 [3, 9]: 85.68%

CN(C)[C@@H]1C(O)=C(C(N)=O)C(=O)[C@@]2(O)C(O)=C3C(=O)c4c(O)cccc4[C@@](C)(O)[C@H]3C[C@@H]12 [Tetracycline]
activity at 2 µg/mL [1, 4]: 62.1%
activity at 2 µg/mL [1, 5]: 83.3%
activity at 2 µg/mL [2, 6]: 164%
activity at 2 µg/mL [2, 7]: 73.9%
percent parasite growth at 2 µg/mL ([3]; Toxoplasma gondii, 72 h, read-out: Tg_72h_%Growth_Rep1): 103%
percent parasite growth at 2 µg/mL ([3]; Toxoplasma gondii, 72 h, read-out: Tg_72h_%Growth_Rep2): 101%

CC[C@@H]1CCN[C@H](C(=O)N[C@@H]([C@H]2O[C@H](SC)[C@H](O)[C@@H](O)[C@H]2O)[C@H](C)Cl)C1 [BIA-P1459]
Pf_72h_%Growth_Rep1 ([1]; P. falciparum 3D7, 72 h, parasite screen at 2 μg/mL, % growth, replicate 1): 26.60%
Pf_72h_%Growth_Rep2 ([1]; P. falciparum 3D7, 72 h, parasite screen at 2 μg/mL, % growth, replicate 2): 41.09%
Pf_120h_%Growth_Rep1 ([2]; P. falciparum 3D7, 120 h, parasite screen at 2 μg/mL, % growth, replicate 1): 9.76%
Pf_120h_%Growth_Rep2 ([2]; P. falciparum 3D7, 120 h, parasite screen at 2 μg/mL, % growth, replicate 2): 125.61%
Tg_72h_%Growth_Rep1 ([3]; T. gondii, 72 h, parasite screen at 2 μg/mL, % growth, replicate 1): 8.37%
Tg_72h_%Growth_Rep2 ([3]; T. gondii, 72 h, parasite screen at 2 μg/mL, % growth, replicate 2): 23.25%

C=C1CC[C@H]2C(C)(C)CCC[C@]2(C)[C@H]1C[C@@]12C[C@H]3C(=O)N4CCC[C@H]4C(=O)N3[C@@H]1Nc1ccccc12 [Drimentine C]
activity at 2 µg/mL ([1]; 3D7, library screen at 2 μg/mL, 72 h, % growth, replicate 1, read-out: Pf_72h_%Growth_Rep1): 85.2%
activity at 2 µg/mL ([1]; 3D7, library screen at 2 μg/mL, 72 h, % growth, replicate 2, read-out: Pf_72h_%Growth_Rep2): 87.9%
activity at 2 µg/mL ([2]; 3D7, library screen at 2 μg/mL, 120 h, % growth, replicate 1, read-out: Pf_120h_%Growth_Rep1): 78.4%
activity at 2 µg/mL ([2]; 3D7, library screen at 2 μg/mL, 120 h, % growth, replicate 2, read-out: Pf_120h_%Growth_Rep2): 103%
percent parasite growth at 2 µg/mL ([3]; Toxoplasma gondii, 72 h, library screen at 2 μg/mL, 72 h, % growth, replicate 1; read-out: Tg_72h_%Growth_Rep1): 91.6%
percent parasite growth at 2 µg/mL ([3]; Toxoplasma gondii, 72 h, library screen at 2 μg/mL, 72 h, % growth, replicate 2; read-out: Tg_72h_%Growth_Rep2): 73.3%

COc1ccc2cc1Oc1cc(ccc1O)[C@H](O)[C@]13SS[C@@]4(C(=O)N1C)[C@H](O)C1=COC=C[C@H](OC2=O)[C@H]1N4C3=O [Emestrin]
Pf_72h_%Growth_Rep1 [1, 8]: 36.85%
Pf_72h_%Growth_Rep2 [1, 9]: 26.37%
Pf_120h_%Growth_Rep1 [2, 10]: 35.44%
Pf_120h_%Growth_Rep2 [2, 11]: 47.36%
Tg_72h_%Growth_Rep1 [3, 8]: 2.77%
Tg_72h_%Growth_Rep2 [3, 9]: 0.86%

CC[C@H](C)[C@H]1NC(=O)[C@H](C(C)C)OC(=O)[C@H](CC(C)C)N(C)C(=O)[C@H](C(C)C)NC(=O)[C@H](C(C)C)OC(=O)[C@@H](CC(C)C)NC1=O [Sporidesmolide II] (cyclo([Hiv]V[NMeL][Hiv][d(aIle)][dL]))
Pf_72h_%Growth_Rep1 ([1]; P. falciparum, 72 h, parasite screen 2 μg/mL, % growth, replicate 1): 88.48%
Pf_72h_%Growth_Rep2 ([1]; P. falciparum, 72 h, parasite screen 2 μg/mL, % growth, replicate 2): 54.25%
Pf_120h_%Growth_Rep1 ([2]; P. falciparum, 120 h, parasite screen 2 μg/mL, % growth, replicate 1): 86.28%
Pf_120h_%Growth_Rep2 ([2]; P. falciparum, 120 h, parasite screen 2 μg/mL, % growth, replicate 2): 130.73%
Tg_72h_%Growth_Rep1 ([3]; T. gondii, 72 h, parasite screen 2 μg/mL, % growth, replicate 1): 96.52%
Tg_72h_%Growth_Rep2 ([3]; T. gondii, 72 h, parasite screen 2 μg/mL, % growth, replicate 2): 86.44%

CC[C@H]1CC2CN3CCc4c([nH]c5ccc(OC)cc45)[C@](C(=O)OC)(C2)[C@H]13 (stereo in doubt) [Voacangine]
activity at 2 µg/mL [1, 4]: 86.5%
activity at 2 µg/mL [1, 5]: 89.9%
activity at 2 µg/mL [2, 6]: 164%
activity at 2 µg/mL [2, 7]: 91%
percent parasite growth at 2 µg/mL [3, 12]: 89.9%
percent parasite growth at 2 µg/mL [3, 13]: 96.7%

COc1cc(-c2cc3c(c(=O)o2)C[C@]2(O)[C@@]4(C)C(=O)C=CC(C)(C)[C@]4(O)CC[C@@]2(C)O3)cc(OC)c1OC [Territrem B]
activity at 2 µg/mL ([1]; 3D7, 72 h, P. falciparum, 72 h, screen at 2 μg/mL, replicate 1, read-out: Pf_72h_%Growth_Rep1): 63.6%
activity at 2 µg/mL ([1]; 3D7, 72 h, P. falciparum, 72 h, screen at 2 μg/mL, replicate 2, read-out: Pf_72h_%Growth_Rep2): 64.7%
activity at 2 µg/mL ([2]; 3D7, 120 h, P. falciparum, 120 h, screen at 2 μg/mL, replicate 1, read-out: Pf_120h_%Growth_Rep1): 148%
activity at 2 µg/mL ([2]; 3D7, 120 h, P. falciparum, 120 h, screen at 2 μg/mL, replicate 2, read-out: Pf_120h_%Growth_Rep2): 68.3%
percent parasite growth at 2 µg/mL [3, 12]: 89.7%
percent parasite growth at 2 µg/mL [3, 13]: 98.2%

COc1ccc(C[C@H]2NC[C@H](O)[C@H]2O)cc1 [Deacetylanisomycin]
Pf_72h_%Growth_Rep1 ([1]; P. falciparum, 72 h, screen at 2 μg/mL, replicate 1): 64.17%
Pf_72h_%Growth_Rep2 ([1]; P. falciparum, 72 h, screen at 2 μg/mL, replicate 2): 43.98%
Pf_120h_%Growth_Rep1 ([2]; P. falciparum, 120 h, screen at 2 μg/mL, replicate 1): 36.01%
Pf_120h_%Growth_Rep2 ([2]; P. falciparum, 120 h, screen at 2 μg/mL, replicate 2): 30.23%
Tg_72h_%Growth_Rep1 ([3]; T. gondii, 72 h, screen at 2 μg/mL, replicate 1): 5.55%
Tg_72h_%Growth_Rep2 ([3]; T. gondii, 72 h, screen at 2 μg/mL, replicate 2): 18.56%
